In the supplement of paper PMC10307832:

Assays:
Assay in all cases: relative viability (nuclei count vs DMSO), 5 days (fraction); higher = more cells survive
Mirin + OSI-027 = compound: N=C1NC(=O)/C(=C/c2ccc(O)cc2)S1 [Mirin] + COc1cccc2cc(-c3nc([C@H]4CC[C@H](C(=O)O)CC4)n4ncnc(N)c34)[nH]c12 [OSI-027] (partner 0.5 µM)
In short: (§1)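 For relative viability, nuclei counts in treated wells were divided by those in vehicle wells. Lung cancer cell lines had been pin-tool dosed in 1536-well plates the day after seeding and cultured for 5 days, then fixed and stained in one step (final 0.05% Triton X-100, 1% formaldehyde, 1 ug/ml Hoechst) and imaged at 4×. Doses were one drug alone or a fixed anchor-drug dose plus five library-drug doses (not always all listed) in √10 steps, and values are duplicate-plate medians.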

Mirin + AZD7762 = compound: N=C1NC(=O)/C(=C/c2ccc(O)cc2)S1 [Mirin] + NC(=O)Nc1cc(-c2cccc(F)c2)sc1C(=O)N[C@H]1CCCNC1 [AZD7762] (partner 0.2 µM)
In short: as §1

[1] = compound: CCn1c(-c2nonc2N)nc2cnc(Oc3cccc(NC(=O)c4ccc(OCCN5CCOCC5)cc4)c3)cc21 + C[C@]1(O)C[C@@H](c2nc(-c3ccc4ccc(-c5ccccc5)nc4c3)c3c(N)nccn32)C1 [Linsitinib] (partner 1 µM)
In short: as §1

Mirin + Pemetrexed = compound: N=C1NC(=O)/C(=C/c2ccc(O)cc2)S1 [Mirin] + Nc1nc2[nH]cc(CCc3ccc(C(=O)N[C@@H](CCC(=O)O)C(=O)O)cc3)c2c(=O)[nH]1 [Pemetrexed] (partner 0.2 µM)
In short: as §1

Cell Line	relative viability (Mirin + OSI-027; first compound 0.25 µM)	relative viability (Mirin + OSI-027; first compound 0.7906 µM)	relative viability (Mirin + OSI-027; first compound 2.5 µM)	relative viability (Mirin + OSI-027; first compound 7.906 µM)	relative viability (Mirin + OSI-027; first compound 25 µM)	relative viability (Mirin + AZD7762; first compound 0.25 µM)	relative viability (Mirin + AZD7762; first compound 0.7906 µM)	relative viability (Mirin + AZD7762; first compound 2.5 µM)	relative viability (Mirin + AZD7762; first compound 7.906 µM)	relative viability (Mirin + AZD7762; first compound 25 µM)	relative viability ([1]; first compound 0.04 µM)	relative viability ([1]; first compound 0.1265 µM)	relative viability ([1]; first compound 0.4 µM)	relative viability ([1]; first compound 1.265 µM)	relative viability ([1]; first compound 4 µM)	relative viability (Mirin + Pemetrexed; first compound 0.25 µM)	relative viability (Mirin + Pemetrexed; first compound 0.7906 µM)	relative viability (Mirin + Pemetrexed; first compound 2.5 µM)	relative viability (Mirin + Pemetrexed; first compound 7.906 µM)	relative viability (Mirin + Pemetrexed; first compound 25 µM)
NCI-H2085	0.873	0.674	0.748	0.603	0.584	0.929	1.11	0.979	1.02	0.883	1.02	0.9	0.756	0.792	0.683	0.919	1.03	0.932	0.925	0.932
NCI-H520	0.241	0.289	0.257	0.222	0.177						1.07	1.15	1.12	0.565	0.415	0.654	0.591	0.7	0.545	0.449
Calu-6											0.964	0.94	0.616	0.524	0.536					
SK-LU-1	0.387	0.35	0.333	0.276	0.228						1.17	0.861	0.906	0.439	0.423	0.983	0.992	0.931	0.855	0.823
LCLC-103H	0.444	0.495	0.515	0.509	0.442	0.875	0.779	0.784	0.844	0.803	1.12	1.07	0.902	1.05	1.03	0.441	0.523	0.487	0.425	0.435
HCC-15	0.81	0.557	0.614	0.585	0.466	0.589	0.973	1.33	1.28	1.18	1.15	0.88	0.901	0.825	0.883	0.217	0.233	0.218	0.196	0.203
H3255	0.558	0.536	0.636	0.475	0.616	0.899	0.958	0.943	0.738	0.867	1.2	0.952	0.99	0.62	0.768	0.525	0.605	0.626	0.54	0.571
NCI-H1563	0.697	0.816	0.744	0.731	0.648						1.1	1.1	1.12	0.884	0.869	0.854	0.898	0.98	0.745	0.769
NCI-H727	0.833	0.596	0.529	0.586	0.877	0.595	0.612	0.841	0.47	0.443	0.265	0.379	0.406	0.506	0.268					
NCI-H522	0.705	0.513	0.762	0.688	0.62	0.813	0.805	0.83	0.861	0.595						0.799	1.02	0.764	1	0.522
COR-L23	0.803	0.816	0.761	0.69	0.728						1	0.785	0.521	0.172	0.148	0.2	0.204	0.209	0.187	0.204
NCI-H1299											0.987	0.858	0.777	0.47	0.769					
NCI-H661	0.755	0.893	0.702	0.62	0.606						0.652	0.612	0.518	0.471	0.45	0.906	1.01	0.942	0.953	0.822
ChaGo-K-1	0.582	0.396	0.55	0.492	0.432	0.832	0.825	0.868	0.835	0.755						0.263	0.252	0.255	0.259	0.256
SK-MES-1	0.584	0.643	0.684	0.558	0.528						1.24	0.952	0.896	0.774	0.823	0.993	1.09	0.998	1.08	1.01
NCI-H1648	0.279	0.276	0.232	0.261	0.26	0.722		0.652	0.641	0.576						0.76		0.853	0.678	0.55
NCI-H2023	0.407	0.466	0.401	0.356	0.285						0.802	0.694	0.71	0.566	0.482	0.254	0.258	0.218	0.247	0.156
EBC-1											0.852	1.09	0.78	0.79	0.876					
NCI-H2009	0.646	0.662	0.706	0.413	0.522						1.01	0.99	0.999	0.701	0.423	1.05	1.11	1.01	0.964	1.16
IA-LM											0.95	0.8	0.658	0.54	0.681					
ABC-1	0.442	0.346	0.484	0.467	0.225	0.603	0.929	0.628	0.847	0.683	1.15	0.906	0.687	0.574	0.5					
NCI-H1703						0.115	0.148	0.146		0.117	0.709	0.838	0.436	0.464	0.294					
NCI-H2170	0.716	0.642	0.784	0.653	0.787	0.926	0.752	0.823	0.849	0.848						0.249	0.282	0.268	0.263	0.28
